Earlier results on 1 compound are cited in US20070105848A1 (priority 2005, published 2007).

In one data set the test system is methemoglobinemia. As to conditions: i.v., 1 mg/kg body weight.
Data set [1] concerns the target Plasmodium falciparum glutathione reductase (Plasmodium falciparum, UniProt O15770).
In the next data set the test system is adult humans. As to conditions: one week to 19 months, 100 mg b.i.d. or t.i.d. orally or 100 mg i.v.

Chain of Plasmodium falciparum glutathione reductase (O15770 47-546): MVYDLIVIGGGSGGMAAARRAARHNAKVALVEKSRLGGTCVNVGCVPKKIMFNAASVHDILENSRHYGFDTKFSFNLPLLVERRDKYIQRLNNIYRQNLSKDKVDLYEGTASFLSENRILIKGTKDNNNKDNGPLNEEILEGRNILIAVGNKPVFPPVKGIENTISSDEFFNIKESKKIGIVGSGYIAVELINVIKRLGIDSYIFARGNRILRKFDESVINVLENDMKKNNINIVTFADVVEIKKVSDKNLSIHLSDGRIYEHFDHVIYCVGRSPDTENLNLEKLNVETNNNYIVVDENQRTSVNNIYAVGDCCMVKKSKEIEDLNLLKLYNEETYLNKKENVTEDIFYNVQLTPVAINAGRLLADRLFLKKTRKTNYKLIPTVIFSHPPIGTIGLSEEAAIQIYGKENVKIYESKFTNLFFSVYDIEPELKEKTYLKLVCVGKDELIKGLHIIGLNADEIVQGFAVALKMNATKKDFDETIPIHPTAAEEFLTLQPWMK

Regarding `CN(C)c1ccc2nc3ccc(N(C)C)cc3[s+]c2c1.[Cl-]` [Methylene blue, 3,7-bis(dimethylamino)-phenothiazin-5-ium chloride], in the data set with methemoglobinemia, the treatment of methemoglobinemia entry is “effective”. Moreover, in the data set on malaria, the antimalarial activity entry was “intrinsic antimalarial activity” and the chloroquine sensitization result is on record as “can act as a chloroquine sensitizer”. In data set [1], the “inhibition of Plasmodium falciparum glutathione reductase” value is reported as “selective inhibitor”. For the same compound, in the data set on adult humans, the “side effects on prolonged administration” value is on record as “minimal side effects”.
